pIC50: −log10 of the molar value. “Also recorded” adds a separate entry of the source. Read-outs that look alike come from different tables or passages of the source.
Legend:
HIV-1 = HIV-1 replication, reverse transcriptase (RT) assay in CEM cells; type: cell-based, HIV-1 strain IIIB; conditions: CEM cells, strain IIIB
Procedure: (§1) CEM cells and strain IIIB of HIV-1 were obtained through courtesy of Dr. Louis S. Kurcera, Boman Gray School of Medicine, Wake Forest University. CEM cells were grown in suspension culture and passaged through conventional procedures.
The activity of compounds against HIV-1 replication was determine by using reverse transcriptase (RT) as a marker for HIV-1. Strain IIIB of HIV-1 was grown in CEM cells maintained in suspension culture as detailed previously (see Kucera et al. AIDS Res. Human Retroviruses, 1993, Vol. 9, pp. 307-314). The assay measured the presence of HIV in supernatants of infected CEM cells by determining the amount of RT activity. Cells were grown, infected with HIV-1, and incubated in the presence of seven concentrations (one-half log10 dilutions) of the test compounds beginning at 1 or 100 μM concentration, depending on the compound to be assayed. Procedures and the RT assay were performed as detailed previously (see White et al., Antiviral Res. 1991, Vol. 16, pp. 257-266).

HCMV [1] = assay: HCMV plaque (focus) reduction assay in HFF cells; type: cell-based; conditions: read-out: 50% Inhibitory Concentration IC50, Antiviral Activity, HCMV (plaque assay in HFF cells)
Procedure: (§2) KB cells (available from the American Type Culture Collection (ATCC) 12301 Parklawn Drive, […], Md. 20852 (ATCC CCL 17)), an established human cell line derived from an epidermal oral carcinoma, were grown in minimal essential medium (MEM) (Sigma) with Hanks salts (MEM(H)) supplemented with 5% fetal calf serum. Human foreskin fibroblasts (HFF cells) (provided by the University of Michigan Hospital) and African green monkey kidney cells (BSC-1) (ATTC CCL 26) cells were grown in MEM with Earl salts (MEM(E)) supplemented with 10% fetal bovine serum. Cells were passaged according to conventional procedures and as described in Shipman, C., Jr. et al. (1976) Antimicrob. Agents Chemother. Vol. 9:120 and incorporated herein by reference. Briefly, cells were passaged at 1:2 to 1:10 dilutions according to conventional procedures by using 0.05% trypsin plus 0.02% EDTA in a HEPES buffered salt solution. HFF cells were passaged onlv at 1:2 dilutions.
(§3) A plaque purified isolate, Po, of the Towne strain of HCMV was used in all experiments and was a gift of Dr. Mark Stinski, University of Iowa. The KOS strain of HSV-1 was used and was provided by Dr. Sandra K. Weller, University of Connecticut. Stock preparations of HCMV and HSV-1 were prepared and titered as known to those of skill and the art and described in Turk, S. R. et al. (1987) Antimicrob. Agents Chemother. Vol. 31:544-550 and Shipman, C., Jr., et al. (1990) J. Virol. Methods Vol. 28:101-106, each incorporated herein by reference.
Stock HCMV was prepared by infecting HFF cells at a multiplicity of infection (m.o.i.) of less that 0.01 plaque-forming units (p.f.u.) per cell. Cell growth medium was changed every four days until cytopathology was evident in all cells (approximately 21 days). Supernatant fluids were retained as the virus stock. Four days later, the remaining cells were disrupted by three cycles of freeze-thawing and the cell plus medium held as an additional source of virus. Storage was in liquid nitrogen.
HCMV was titered in 24-well cluster dishes which were plated to contain 5×10^4 HFF cells/well, grown as described above. When the cells were 70 to 80% confluent, 0.2 ml of the virus suspension was added per well and adsorbed as described above. At least three ten-fold dilutions of each preparation were used. Following virus adsorption, the cell sheets were overlayed with 0.5% methocel (4000 CPS) in maintenance medium [MEM(E) with 1.1 g/liter NaHCO3, 100 units/ml penicillin G, 100 μg/ml streptomycin, and 5% fetal bovine serum]. The cultures were incubated in a humidified atmosphere of 4% CO2 -96% air. Viral plaques were visible 5 to 7 days after infection using at least 10-fold magnification. Cells were fixed and stained by a 10-minute exposure to a 0.1% solution of crystal violet in 20% methanol 7 to 12 days after infection. Microscopic foci were enumerated at 20-fold magnification using a Nikon Profile Projector.
(§4) HCMV plaque reduction experiments were performed with monolayer cultures of HFF cells by a procedure similar to that referenced above for titration of the viruses and described in Devivar, R. V. et al. (1994) J. Med. Chem. Vol. 37:2942-2949. Activity of compounds against HSV-1 was evaluated using an ELISA assay.
The effect of compounds of the replication of HCMV was measured using a plaque (focus) reduction assay. For the former, HFF cells in 24-well culture dishes were infected with approximately 50 p.f.u. of HCMV per well using the procedures detailed above. Compounds dissolved in growth medium were added in four to six selected concentrations to duplicate wells following virus adsorption. Following incubation at 37 °C for 7 to 10 days, cell sheets were fixed, stained and microscopic plaques were enumerated as described above. Drug effects were calculated as a percentage of reduction in number of plaques in the presence of each drug concentration compared to the number observed in the absence of drug. […]

[2] = Growth cytotoxicity in KB cells (crystal violet staining); type: cell-based; conditions: human, two population doubling times, read-out: 50% Inhibitory Concentration IC50, Cytotoxicity, Growth (KB cells)
Procedure: as §2
(§5) Two different methods were used to evaluate cytotoxicity of the compounds. First, cytotoxicity produced in stationary HFF cells was determined by microscopical examination of cells not affected by the virus used in the plaque assay. Second the effect of compounds on KB cells during two population doubling times was determined by crystal violet staining and spectrophotometric quantitation of dye eluted from stained cells. This method has been utilized for the analysis of ganciclovir and zidovudine (See Prichard, M. N. et al. Antiviral Res. (1991) Vol. 35:1060-1065).

in vitro = type: cell-based, human; conditions: human, hff cells
Procedure: as §2, §5

[3] = Growth cytotoxicity in CEM cells; type: cell-based; conditions: human, read-out: 50% Inhibitory Concentration IC50, Cytotoxicity, Growth (CEM cells)
Procedure: as §1

HSV-1 = HSV-1 ELISA assay; type: cell-based, herpes simplex virus type 1, KOS strain; conditions: Human alphaherpesvirus 1; read-out: 50% Inhibitory Concentration IC50, Antiviral Activity, HSV-1 (ELISA assay)
Procedure: as §2, §3
Briefly, high titer HSV-1 stocks were prepared as follows. Nearly confluent monolayer cultures of KB cells were grown in 32 oz. glass bottles containing MEM(E) buffered with 25 mM HEPES and supplemented with 5% fetal bovine serum and 0.127 giliter L-arginine (VGM, virus growth medium). The cultures were infected at a low input multiplicity to reduce the formation of defective virus. After cell cytopathology reached "three to four plus", the cells were harvested by vigorous shaking, and concentrated by centrifugation (800×g for 5 min.). The resulting virus pools were stored at -760C until retrieved for use in experiments.
HSV-1 was titered using monolayer cultures of BSC-1 cells. Cells were planted at 3×10^5 cells/well using 6-well cluster dishes. MEM(E) supplemented with 10% fetal bovine serum was employed as medium. After 22-24 h, cells were 90% confluent and were inoculated in triplicate using at least three ten-fold dilutions with 0.2 ml of the virus suspension to be assayed and incubated in a humidified 4% CO2 -[…] atmosphere for one hour to permit viral adsorption. Following virus adsorption, the cell sheet was overlayed with 5 ml of MEM(E) with 5% serum plus 0.5% methocel (4000 CPS) and incubated an additional two to three days. Cells were fixed and stained with 0.1% crystal violet in 20% methanol and macroscopic plaques enumerated.
as §4
ELISA techniques according to standard procedures were also used to determine activity against HSV-1. Drug effects were calculated as a percentage of the reduction in virus titers in the presence of each drug concentration compared to the titer obtained in the absence of drug. Ganciclovir was used as a positive control in all experiments.

HCMV [4] = conditions: background; cited from earlier work
[5] = background; cited from earlier work

SMILES | 50% Inhibitory Concentration IC50, Antiviral Activity, HIV-1 (RT Assay) (HIV-1) | pIC50 (HCMV [1]; Human betaherpesvirus 5, HFF) | CC50 [2] | CC50 (in vitro) | CC50 [3] | pIC50 (HSV-1) | antiviral activity of known compounds (in words) (HCMV [4]) | pIC50 (HCMV [1]; Human betaherpesvirus 5, HFF cells, 7 to 10 days) | cytotoxicity of known compounds (in words) [5]
OC[C@@H]1C=C[C@H](c2c(Cl)nc3cc(Cl)c(Cl)cn23)O1 [Compound 76, 2,6,7-Trichloro-3-(2',3'-dideoxy-2',3'-didehydro-β-D-ribofuranosyl) imidazo[1,2-a] pyridine] | 14/25 | 4.49 | > 100 µM | 100 µM | > 100 µM | < 4.00 | – | – | –
OC[C@H]1O[C@@H](n2c(Cl)nc3cc(Cl)c(Cl)cc32)[C@H](O)[C@@H]1O [TCRB, 2,5,6-trichloro-1-(2'-β-D-ribofuranosyl)benzimidazole] | – | – | – | 15 µM | – | – | useful against HCMV infections; also recorded: very potent activity against HCMV | 5.02 | low cellular toxicity at concentrations inhibiting viral growth
OC[C@H]1O[C@@H](n2cnc3cc(Cl)c(Cl)cc32)[C@H](O)[C@@H]1O [DRB, 5,6-dichloro-1-(β-D-ribofuranosyl) benzimidazole] | – | – | – | – | – | – | only marginal levels of activity | – | generally unacceptable levels of cytotoxicity
